Assay results: patent US20260217768A1, “NANOPARTICLE-NHE3 PEPTIDE TO TREAT DIARRHEA” (The Johns Hopkins University, priority 2023, published 2026)
pEC50: −log10 of the molar value. Entries after “also recorded” stand apart in the source; their conditions may differ. Like-named read-outs stand apart in the source and are kept apart here.

Experiments:
[1] = test system: mouse ileal loops; experiment: Basal fluid absorption in closed mouse ileal loops, nanoparticle-conjugated peptides, with or without Tenapanor; format: in vivo; settings: pretreatment with 10-μM Tenapanor
Procedure: All in vivo studies were performed on 8-12 week old C57B1/6N mice anesthetized with isofluorane and kept at 37° C. via heating lamps and rectal thermal probes.
Effect on basal fluid transport and effect of Tenapanor. Mice operated on as above had 3-4 cm closed ileal loops inoculated with 150-μL PBS containing 400-nM nanoparticle-CP-2 or -N3SP-1Δ7. After 4 h, the loops were drained and inoculated with 150-μL PBS. 30 min later, the animals were sacrificed and loop weight/length determined. In parallel studies, Tenapanor (10 μM) was present in both incubation periods. Similar to the BODIPY-conjugated peptide studies, the effects of nanoparticle-CP-2 or N3SP-1Δ7 (4 μM) compared to PBS alone were determined on net fluid secretion produced by inoculation of 0.1-μg CTx. The nanoparticle-peptides plus 0.1-μg CTx in 150-μL PBS were inoculated in 3-4 cm long closed ileal loops. Additional controls included loops exposed only to 150-μL PBS and those only exposed to the CTx/PBS. 4 h later, the animals were sacrificed and loop weight/cm length was determined.

[2] = test system: mouse jejunum; settings: in vivo
[3] = test system: NHE3; experiment: NHE3 activity in PS120/HA3-NHE3/NHERF2 cells (BCECF); format: cell-based, rabbit
[4] = test system: NHE3; experiment: NHE3 activity in polarized Caco-2/BBe/HA3-NHE3 cells (BCECF); format: cell-based; settings: for pEC50: Hill equation
[5] = test system: CTx-induced electrogenic anion secretion; experiment: Short-circuit current (Isc) of CTx-treated mouse jejunal loops, Ussing chamber/voltage clamp; settings: for Isc in CTx treated loops compared to CTx in PBS: 400 nM peptide with 1-μg CTx for 6 h, no further secretagogue; for peak increases in Isc with sequential addition of FSK and carbachol: CTx exposed loops, 10-μM FSK then 10-μM CCH serosal, CP-1 vs N3SP-1
[6] = test system: mouse jejunum; experiment: Anti-CD3 monoclonal antibody-induced (TNFα-mediated inflammation) fluid secretion, mouse jejunal loops; format: in vivo
[7] = test system: mouse jejunum; settings: in vivo; remark: listed apart in the source
[8] = test system: mouse jejunum; experiment: Basal net water transport, in vivo perfusion of mouse jejunal loops
[9] = test system: NHE3; experiment: Effect of N-terminal truncations of N3SP-1 on NHE3 activity in human enteroids (BCECF-fluorometry); format: cell-based; settings: human duodenal enteroids, Hill equation; for Stimulation of NHE3 Activity: basal NHE3 activity, BCECF-fluorometry; for pEC50: stimulation of basal NHE3 activity
Procedure: NHE3 activity in PS120, Caco-2/BBe cells and human jejunal enteroids was determined fluorometrically (Photon Technologies Incorporated) using the intracellular pH sensitive dye BCECF, as reported (Levine et al., 1993; Sarker et al., 2008; Foulke-Abel et al., 2020). PS120/HA3-NHE3 cells were seeded on glass cover slips and studied at 70-80% confluency. Caco-2/BBe/HA3-NHE3 cells were grown to confluency on Transwell inserts (polyester, 0.4-μm pore size) and studied approximately 14-16 days pod. Human duodenal enteroid monolayers on Transwell inserts were differentiated for 5 days in the absence of Wnt3a, R-spondin, and noggin as described (Noel et al., 2017; Staab et al., 2020).
Rates of Na^+/H^+ exchange were determined as Na^+-dependent alkalinization in the presence of 50-μM HOE-694 (to inhibit all other plasma membrane NHE isoforms) in HCO3-free solutions, with internal calibration using the nigericin/K+ method, as previously described (Sarker et al., 2008; Foulke-Abel et al., 2020). Kinetic analysis was used for PS120 cell studies (expressed as Vmax) and initial rates (ΔpH/min) for Caco-2/BBe cells, mouse intestine in vitro, and human enteroids. For in vitro mouse jejunal transport studies, NHE3 activity (in the presence of 50-μM HOE-694) was measured using SNARF-4F at 37° C. in a perfusion chamber using a two-photon microscope (Olympus FV1000) and 25× objective, as described (Murtazina et al., 2011).
Concentration dependent effects on NHE3 basal activity was determined using BCECF-fluorometry. Kinetic analysis was determined of extent of stimulation of basal NHE3 activity; analysis was by use of the Hill equation.
Given the ability of N3SP-1Δ7 to prevent CTx-induced fluid secretion in vivo (FIG. 3E) and to stimulate basal NHE3 activity and prevent cAMP inhibition in human enteroids (FIG. 4C), further studies were carried out with human enteroids to determine the shortest N3SP-1-related peptide that would stimulate human NHE3. A series of N3SP-1 N-terminal truncations was synthesized and concentration-dependent stimulation of NHE3 activity determined using human jejunal enteroids.

[10] = test system: NHE3; experiment: NHE3 activity in mouse jejunum in vitro (two-photon microscope/SNARF-4F); format: cell-based

## CN1Cc2c(Cl)cc(Cl)cc2[C@H](c2cccc(S(=O)(=O)NCCOCCOCCNC(=O)NCCCCNC(=O)NCCOCCOCCNS(=O)(=O)c3cccc([C@@H]4CN(C)Cc5c(Cl)cc(Cl)cc54)c3)c2)C1 [Tenapanor, reference compound]
[1]
  effect on N3SP-1Δ7 increased baseline fluid absorption: prevented

## CP-1: 21 aa control peptide representing aa 585-605 of rabbit NHE3 (YLLRESASAVCLDMQSLEQRR; UniProt P26432 585-605, looked up, fragment)
[2]
  effect on STa-induced intestinal fluid accumulation: not observed
[3]
  effect on basal NHE3 activity compared to BODIPY alone: no significant effect
  effect on basal NHE3 activity in the absence of BODIPY conjugation: Neither CP-1 nor N3SP-1 altered basal NHE3 activity
[4]
  EGF stimulation of NHE3 activity in presence of peptide: 38%
[5]
  Isc in CTx treated loops compared to CTx in PBS: slightly, but not significantly, greater
  peak increases in Isc with sequential addition of FSK and carbachol: not different
[6]; mouse, in vivo, ip
  effect on anti-CD3 antibody-induced luminal fluid accumulation: increased luminal fluid accumulation
[7]
  effect on CTx-stimulated net fluid secretion (loop weight/cm): did not alter fluid accumulation
  localization of NHE3 in CTx-treated jejunum: NHE3 was internalized
[8]; mouse, in vivo
  jejunal net water transport: 4.2 µL/min/cm

## N3SP-1 N-terminal truncation of 5 aa: TPRPSTVEASVSYLLRESASAVCLDMQSLEQRR [Peptide N3SP-1Δ5]
[9]
  Stimulation of NHE3 Activity: YES (39%)
  pEC50: 6.81

## N3SP-1 N-terminal truncation of 6 aa: PRPSTVEASVSYLLRESASAVCLDMQSLEQRR [Peptide N3SP-1Δ6]
[9]
  Stimulation of NHE3 Activity: YES (40%)
  pEC50: 6.82

## NHE3 mimetic peptide, rabbit NHE3 aa 568-605: NVDFSTPRPSTVEASVSYLLRESASAVCLDMQSLEQRR [Peptide N3SP-1]
[2]
  effect on STa-induced intestinal fluid accumulation: significantly reduced
[3]; BODIPY-conjugated peptide 400 nM, PS120/HA3-NHE3/NHERF2 cells
  stimulation of basal NHE3 activity compared to CP-1: 61%
[3]; BODIPY-conjugated peptide pretreatment, 0.5-μM A23187, PS120 fibroblasts
  effect on inhibition of NHE3 by 4-Br-A23187: prevented inhibition
[3]; unconjugated peptide 400 nM, PS120 cells
  effect on basal NHE3 activity in the absence of BODIPY conjugation: No stimulatory effect; also recorded: Neither CP-1 nor N3SP-1 altered basal NHE3 activity
[4]; BODIPY-conjugated peptide 400 nM, Caco-2/BBe/HA3-NHE3 cells
  stimulation of basal NHE3 activity compared to CP-1: 41%
[4]; BODIPY-conjugated peptide added apically, Caco-2/BBe cells, read-out: EC50 of prevention of FSK inhibition of NHE3
  pEC50: 6.80
[4]; BODIPY-conjugated peptide pretreatment, FSK (10 μM), Caco-2/BBe cells
  effect on inhibition of NHE3 by FSK: prevented inhibition
[4]; BODIPY-conjugated peptide pretreatment, carbachol (10 μM), Caco-2/BBe cells
  effect on inhibition of NHE3 by carbachol: prevented inhibition
[4]; BODIPY-conjugated peptide, Caco-2/BBe/HA3-NHE3 cells
  concentration of maximal effect on basal NHE3 activity: 400 nM
[4]; BODIPY-conjugated peptide, Caco-2/BBe/HA3-NHE3 cells, read-out: EC50 of stimulation of basal NHE3 activity
  pEC50: 6.82
[4]; EGF (200 ng/mL), BODIPY-conjugated peptide 400 nM, Caco-2/BBe cells
  EGF stimulation of NHE3 activity in presence of peptide: 35%
[5]
  Isc in CTx treated loops compared to CTx in PBS: slightly, but not significantly, greater; also recorded: not altered
  peak increases in Isc with sequential addition of FSK and carbachol: not different
[6]; 400 nM peptide in loop, 200-μg anti-CD3 antibody IP, 2.5 h
  effect on anti-CD3 antibody-induced luminal fluid accumulation: prevents fluid secretion
[10]; BODIPY-conjugated peptide 400 nM
  stimulation of basal NHE3 activity compared to CP-1: 57%
[10]; BODIPY-conjugated peptide pretreatment, FSK (10 μM)
  effect on inhibition of NHE3 by FSK: prevented inhibition
[7]
  effect on CTx-stimulated net fluid secretion (loop weight/cm): prevented CTx-stimulated fluid secretion
  localization of NHE3 in CTx-treated jejunum: NHE3 was detected on the CTx-treated jejunal BB
[9]
  Stimulation of NHE3 Activity: YES (38%)
  pEC50: 6.82
[8]; 400 nM, n=5, p=0.0004
  difference in net water transport between N3SP-1 and CP-1 perfused jejunal loops: 56.6 ± 15.1 µL/min/cm
